# Measured values as given in patent US11352365B2, “Biased potent opioid-like agonists as improved medications to treat chronic and acute pain and methods of using the same” (THE UNITED STATES OF AMERICA, AS REPRESENTED BY THE …, priority 2018, dated 2022).
# Like-named read-outs stand apart in the source and are kept apart here.
# How the values were obtained:
# MOR [1] = target: T1, MOR (Homo sapiens, UniProt P35372); assay: cell-based; type: cell-based; set-up: expressed in transfected cells; host or cells: CHO-hMOR (membrane variant); SH-SY5Y-hMOR also named
# T1 sequence (P35372 whole entry): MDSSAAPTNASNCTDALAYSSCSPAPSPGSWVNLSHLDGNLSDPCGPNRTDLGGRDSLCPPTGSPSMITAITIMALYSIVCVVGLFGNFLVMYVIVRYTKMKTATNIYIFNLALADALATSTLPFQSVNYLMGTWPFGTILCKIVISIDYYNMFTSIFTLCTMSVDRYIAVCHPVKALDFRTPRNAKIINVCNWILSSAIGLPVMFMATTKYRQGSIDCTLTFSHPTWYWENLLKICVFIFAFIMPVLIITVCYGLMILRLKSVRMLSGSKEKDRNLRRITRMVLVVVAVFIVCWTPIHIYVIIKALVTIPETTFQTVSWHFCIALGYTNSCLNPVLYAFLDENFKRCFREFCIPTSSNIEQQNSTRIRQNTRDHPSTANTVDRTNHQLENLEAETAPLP
# Protocol: Four thousand cells per well were split into 384-well low-volume plate (VWR) with Opti-MEM (Invitrogen) supplemented with 1% FBS for 3 hours at 37° C. except SH-SY5Y-hMOR cells, which were plated for 1 hour at 37° C. Cells were then treated with drugs, […] forskolin for 30 min at room temperature.
# Cells were then homogenized by a Dounce homogenizer 15 times in an ice-cold buffer [50 mM Hepes (pH 7.4)], followed by centrifugation at 500 g at 4° C. for 5 min. The supernatant was transferred to a 1.5-ml tube on ice, and the pellet was resuspended, homogenized, and centrifuged at 500 g at 4° C. for 5 min. Then, the supernatant was combined and spun at 20,000 g at 4° C. for 10 min. The membrane pellet was resuspended in an ice-cold buffer [50 mM Hepes (pH 7.4)] at concentrations of […]. Membranes were stored at −80° C. until use. For forskolin-stimulated cAMP accumulation assay, membranes were diluted in an assay buffer (50 mM Hepes, 10 mM MgCl2, 100 mM NaCl, 200 mM adenosine 5′-triphosphate, 10 mM GTP, 100 mM 3-isobutyl-1-methylxanthine, 20 mM forskolin, and 30 mM bovine serum albumin) and plated at […] of protein in each well. Membranes were treated with test compounds for 30 min at room temperature. The cAMP levels were determined as per the manufacturer's instructions (Cisbio cAMP HiRange assay).
# MOR [2] = target: T1, MOR; type: cell-based; set-up: expressed in transfected cells; host or cells: CHO-hMOR (membrane variant); SH-SY5Y-hMOR also named
# MOR [3] = target: T1, MOR; assay: cell-based; type: cell-based; set-up: host or cells: U2OS-β-arrestin2-EFC-hMOR
# Protocol: The PathHunter β-arrestin assay. The assay was performed according to the manufacturer's protocol (DiscoveRx) and as described previously. Briefly, 5000 U2OS-β-arrestin2-EFC-hMOR cells were plated in 384-well white plates with Opti-MEM media (Invitrogen) containing 1% FBS±pertussis toxin (100 ng/ml) overnight. The next day, cells were treated with compounds for 90 min at 37° C., followed by a 1-hour incubation of detection reagent at room temperature. Luminescence values were determined by using a Synergy HT luminometer (BioTek).
# Male Swiss-Webster mice = assay: Respiration rate and arterial oxygen saturation (MouseOx pulse oximeter) in conscious mice; conditions: for respiratory depression in mice: equi-analgesic dose range of morphine
# Protocol: Measurement of respiration rate and arterial oxygen saturation. […] They were housed (five in a cage) in a temperature-controlled environment with a 12-hour light-dark cycle and were supplied with food and water ad libitum. Mice were acclimated for a week in the central animal facility before behavioral testing. On the day of the experiment, mice were brought to the room and acclimated for 45-60 min in the observation boxes. Respiration and oxygen saturation (SpO2) were measured using MouseOx Plus Rat and Mouse Pulse Oximeter (Starr Life Sciences Corp, Oakmont, USA) in conscious, freely moving animals. […] Mice were then placed into observation boxes and recording was started 5 min later to eliminate any anesthesia effect.
# Data are expressed as mean±standard error of the mean (S.E.M.), and p<0.05 was accepted as statistically significant. GraphPad Prism, version 7, was used for data analysis.
# δ opioid receptor = target: T2, δ opioid receptor (Rattus norvegicus, UniProt P33533); assay: Binding assay, 3H DADLE, rat tissue; conditions: triplicate, read-out: 3H DADLE δ Ki ± SEM
# T2 construct: from tissue; host or cells: rat tissue (per the earlier reading)
# T2 sequence (P33533 whole entry): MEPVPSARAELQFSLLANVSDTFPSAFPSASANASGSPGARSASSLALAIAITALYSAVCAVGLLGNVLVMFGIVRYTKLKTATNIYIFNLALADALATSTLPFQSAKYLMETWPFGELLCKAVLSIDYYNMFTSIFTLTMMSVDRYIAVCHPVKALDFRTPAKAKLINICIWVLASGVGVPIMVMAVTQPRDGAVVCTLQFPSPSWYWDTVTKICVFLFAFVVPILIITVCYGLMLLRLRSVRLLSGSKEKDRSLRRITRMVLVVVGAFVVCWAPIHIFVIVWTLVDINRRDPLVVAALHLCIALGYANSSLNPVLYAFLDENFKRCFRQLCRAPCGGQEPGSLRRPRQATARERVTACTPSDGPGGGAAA
# κ opioid receptor = target: T3, κ opioid receptor (Rattus norvegicus, UniProt P34975); assay: Binding assay, 3H U69,593, rat tissue; conditions: rat tissue, triplicate; read-out: 3H U69,593 κ Ki ± SEM
# T3 construct: from tissue; host or cells: rat tissue (per the earlier reading)
# T3 sequence (P34975 whole entry): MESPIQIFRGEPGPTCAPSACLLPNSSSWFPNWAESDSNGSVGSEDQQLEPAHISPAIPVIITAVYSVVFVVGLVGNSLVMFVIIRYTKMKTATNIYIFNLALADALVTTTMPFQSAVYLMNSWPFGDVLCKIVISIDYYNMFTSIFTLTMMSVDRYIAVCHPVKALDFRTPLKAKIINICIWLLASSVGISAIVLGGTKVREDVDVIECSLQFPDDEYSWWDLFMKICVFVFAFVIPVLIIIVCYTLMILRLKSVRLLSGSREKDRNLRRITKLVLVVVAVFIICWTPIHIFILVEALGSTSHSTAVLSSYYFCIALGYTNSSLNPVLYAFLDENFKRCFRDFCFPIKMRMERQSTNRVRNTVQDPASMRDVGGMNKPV
# KOR [4] = target: T4, KOR (Homo sapiens, UniProt P41145); assay: KOR cAMP agonist assay; type: cell-based; conditions: Table 1; read-out: KOR cAMP Agonist Potency ± SEM
# T4 sequence (P41145 whole entry): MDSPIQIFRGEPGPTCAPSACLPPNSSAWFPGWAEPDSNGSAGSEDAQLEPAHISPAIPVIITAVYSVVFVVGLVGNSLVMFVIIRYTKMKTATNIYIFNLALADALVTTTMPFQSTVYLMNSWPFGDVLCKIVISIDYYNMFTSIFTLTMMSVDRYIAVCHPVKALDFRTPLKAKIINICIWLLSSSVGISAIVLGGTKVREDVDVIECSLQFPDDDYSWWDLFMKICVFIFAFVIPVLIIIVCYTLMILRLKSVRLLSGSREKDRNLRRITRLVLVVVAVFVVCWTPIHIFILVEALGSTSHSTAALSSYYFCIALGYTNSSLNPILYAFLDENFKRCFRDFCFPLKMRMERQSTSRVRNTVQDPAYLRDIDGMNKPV
# μ opioid receptor = μ opioid receptor (Rattus norvegicus, UniProt P33535); assay: biochemical
# μ opioid receptor, sequence (P33535 whole entry): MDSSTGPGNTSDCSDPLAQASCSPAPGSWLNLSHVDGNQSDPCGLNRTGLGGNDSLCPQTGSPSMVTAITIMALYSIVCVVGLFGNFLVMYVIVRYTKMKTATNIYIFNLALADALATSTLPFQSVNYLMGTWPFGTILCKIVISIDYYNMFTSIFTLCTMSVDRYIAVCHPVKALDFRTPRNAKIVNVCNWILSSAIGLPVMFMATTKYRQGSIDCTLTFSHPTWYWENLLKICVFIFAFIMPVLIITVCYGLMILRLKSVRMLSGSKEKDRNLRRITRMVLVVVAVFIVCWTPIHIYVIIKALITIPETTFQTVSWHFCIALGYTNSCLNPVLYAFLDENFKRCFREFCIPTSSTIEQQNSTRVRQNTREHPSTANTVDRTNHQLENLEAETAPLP
# KOR [5] = target: T4, KOR; assay: KOR cAMP antagonist assay; type: cell-based
# MOR [6] = target: T1, MOR; set-up: host or cells: U2OS-β-arrestin2-EFC-hMOR; conditions: cited from earlier work
# δ and μ opioid receptors = assay: In vitro potency ratio at δ and μ opioid receptors; type: cell-based
# [7] = Table 2, inhibition of forskolin-induced cAMP accumulation, read-out: MOR cAMP Agonist Potency ± SEM
# [8] = Table 2, read-out: MOR cAMP Agonist (% Efficacy) (converted)
# [9] = Table 3, read-out: MOR cAMP Agonist (% Efficacy) (converted)
# [10] = Table 3, read-out: MOR Mediated B-arrestin Recruitment
# [11] = Table 3, inhibition of forskolin-induced cAMP accumulation, read-out: MOR cAMP Agonist Potency ± SEM
# [12] = Table 2, read-out: MOR Mediated B-arrestin Recruitment
# [13] = Table 4, read-out: MOR cAMP Agonist Potency ± SEM
# [14] = read-out: MOR Mediated B-arrestin Recruitment (% Control, Emax DAMGO), Table 2
smiles,measurement,setting,value
"CCC[C@H]1[C@@H]2CCC[C@@]1(c1cccc(O)c1)CCN2CCc1ccccc1 [Compound 15, 3-(2-Phenethyl-9-propyl-2-azabicyclo[3.3.1]nonan-5-yl)phenol]",EC50,MOR [1]; [7],0.95 ± 0.35 nM
same,Emax,MOR [1]; [8],63.3%
same,Bias Factor,MOR [2]; Table 2,"23,442"
"C[C@@H]1C2CCC[C@@]1(c1cccc(O)c1)CCN2CCc1ccccc1 (single isomer, unassigned; (-)) [(−)-48]",Emax,MOR [1]; [9],71%
C[C@H]1[C@H]2CCC[C@@]1(c1cccc(O)c1)CCN2CCc1ccccc1 [(+)-48],EC50,MOR [3]; [10],7.72 ± 4.6 nM
same,Emax,"MOR [3]; read-out: MOR Mediated B-arrestin Recruitment (% Control, Emax DAMGO), Table 3",1.8%
same,EC50,MOR [1]; [11],0.4 ± 0.12 nM
same,Emax,MOR [1]; [9],91%
same,Bias Factor,MOR [2]; Table 3,6.7
"CN1CC[C@]23c4c5ccc(O)c4O[C@H]2[C@@H](O)C=C[C@H]3[C@H]1C5 [Morphine, reference compound]",respiratory depression in mice,Male Swiss-Webster mice,did repress respiration
"OC[C@@H]1CC[C@@]2(c3cccc(O)c3)CCN(CCc3ccccc3)[C@H]1C2 (stereo in doubt) [Compound 35, 3-(8-(Hydroxymethyl)-2-phenethyl-2-azabicyclo[3.3.1]nonan-5-yl)phenol]",EC50,MOR [3]; [12],> 25000 nM
same,EC50,MOR [1]; [7],3.07 ± 2.2 nM
same,Emax,MOR [1]; [8],10.9%
same,Bias Factor,MOR [2]; Table 2,1254
"COC(=O)CC[C@H]1[C@@H]2CCC[C@@]1(c1cccc(O)c1)CCN2CCc1ccccc1 [Compound 8, Methyl 3-((1S,5R,9R)-5-(3-hydroxyphenyl)-2-phenethyl-2-azabicyclo[3.3.1]nonan-9-yl)propanoate]",beta-arrestin recruitment (in words),MOR [3],do not
same,EC50,"MOR [3]; Table 1, read-out: MOR Mediated β-arrestin Recruitment",> 25000 nM
same,Emax,"MOR [3]; read-out: MOR Mediated β-arrestin Recruitment (% Control, Emax DAMGO), Table 1",0%
same,Ki,δ opioid receptor,118 ± 7.41 nM
same,Ki,κ opioid receptor,23.2 ± 3.11 nM
same,EC50,KOR [4],> 10000 nM
same,Ki,μ opioid receptor,0.9 ± 0.04 nM
same,KOR cAMP Antagonist Potency ± SEM,KOR [5]; Table 1,2.0 ± 0.4 nM
same,activity at the kappa-receptor (in words),KOR [5]; in vitro data,kappa-receptor antagonist
COc1ccsc1CNCC[C@@]1(c2ccccn2)CCOC2(CCCC2)C1 [TRV130],"beta-arrestin recruitment (in words), noted for known compound",MOR [6],does recruit beta-arrestin slightly
"OC/C=C/[C@H]1[C@@H]2CCC[C@@]1(c1cccc(O)c1)CCN2CCc1ccccc1 [Compound 37, 3-((1S,5R,9R)-9-((E)-3-Hydroxyprop-1-en-1-yl)-2-phenethyl-2-azabicyclo[3.3.1]nonan-5-yl)phenol]",EC50,MOR [1]; [7],2.31 ± 0.78 nM
same,Emax,MOR [1]; [8],33.5%
same,Bias Factor,MOR [2]; Table 2,6794
"O=C1CCC2C3Cc4ccc(O)c5c4[C@@]2(CCN3CCc2ccc(Br)cc2)[C@H]1O5 (stereo partly drawn) [Compound 72, 3-(4-Bromophenethyl)-9-hydroxy-2,3,4,4a,5,6-hexahydro-1H-4,12-methanobenzofuro[3,2-e]isoquinolin-7(7aH)-one]",EC50,MOR [1]; [13],0.15 ± 0.04 nM
same,agonist character at the mu-receptor (in words),MOR [1]; in vitro data,potent μ agonist
same,δ/μ ratio (in vitro potency ratio at δ and μ opioid receptors),δ and μ opioid receptors,approximately 5
"Oc1cccc(C23CCC[C@H]([C@H]2O)N(C/C=C/c2ccccc2)CC3)c1 (stereo in doubt) [Compound 52, (1R,5R,9S)-2-Cinnamyl-5-(3-hydroxyphenyl)-2-azabicyclo[3.3.1]nonan-9-ol]",Emax,MOR [1]; [9],100%
same,Bias Factor,MOR [2]; Table 3,27.120
"C[C@@H](NC(=O)[C@@H](N)Cc1ccc(O)cc1)C(=O)NCC(=O)N(C)[C@@H](Cc1ccccc1)C(=O)NCCO [DAMGO, reference compound]",Bias Factor,MOR [2],1
"Oc1cccc2c1O[C@H]1CN(CCc3ccccc3)[C@H]3CCC[C@@]21C3 [Compound 70, (3S,6aR,11aR)-2-Phenethyl-1,3,4,5,6,11a-hexahydro-2H-3,6a-methano-benzofuro[2,3-c]azocin-10-ol]",EC50,MOR [3]; [10],> 25000 nM
same,EC50,MOR [1]; [11],0.5 ± 0.24 nM
same,Emax,MOR [1]; [9],32.8%
same,Bias Factor,MOR [2]; Table 3,21454
C[C@@H]1[C@@H]2CCC[C@@]1(c1cccc(O)c1)CCN2CCc1ccccc1 [(−)-48],Bias Factor,MOR [2]; Table 3,2056
"O=C1CCC2C3Cc4ccc(O)c5c4[C@@]2(CCN3CCc2ccc(Cl)cc2)[C@H]1O5 (stereo partly drawn) [Compound 71, 3-(4-Chlorophenethyl)-9-hydroxy-2,3,4,4a,5,6-hexahydro-1H-4,12-methanobenzofuro[3,2-e]isoquinolin-7(7aH)-one]",EC50,"MOR [3]; Table 4, read-out: MOR Mediated B-arrestin Recruitment",2.44 ± 0.45 nM
same,Emax,"MOR [3]; read-out: MOR Mediated B-arrestin Recruitment (% Control, Emax DAMGO), Table 4",44.8%
same,Emax,"MOR [1]; Table 4, read-out: MOR cAMP Agonist (% Efficacy) (converted)",98.8%
same,EC50,MOR [1]; [13],0.05 ± 0.03 nM
same,δ/μ ratio (in vitro potency ratio at δ and μ opioid receptors),δ and μ opioid receptors,approximately 1
same,Bias Factor,MOR [2]; Table 4,0.82
same,respiratory depression in mice,Male Swiss-Webster mice,did not depress respiration
same,effect on respiration rate (AUC 6 min to 45 min post injection) compared to saline,"Male Swiss-Webster mice; mice, s.c., 0.01-0.1 mg/kg",no effect on respiration rate
"Oc1cccc([C@]23CCC[C@H]([C@H]2O)N(C[C@H]2C[C@@H]2c2ccccc2)CC3)c1 (stereo in doubt) [Compound 45, (1R,5S,9R)-5-(3-hydroxyphenyl)-2-((trans-2-phenylcyclopropyl)methyl)-2-azabicyclo[3.3.1]nonan-9-ol]",EC50,MOR [3],22 nM
same,Emax,"MOR [3]; read-out: MOR Mediated B-arrestin Recruitment (% Control, Emax DAMGO)",22%
same,EC50,MOR [1],0.12 nM
same,Emax,MOR [1]; read-out: MOR cAMP Agonist (% Efficacy),100%
same,Bias Factor,MOR [2],6.1
"CCOC(=O)/C=C1\[C@H]2CCC[C@]1(c1cccc(O)c1)CCN2CCc1ccccc1 [Compound 26, Ethyl (Z)-2-(5-(3-hydroxyphenyl)-2-phenethyl-2-azabicyclo[3.3.1]nonan-9-ylidene)acetate]",Emax,MOR [3]; [14],22.2%
same,Emax,MOR [1]; [8],100%
same,Bias Factor,MOR [2]; Table 2,179
"C[C@@H]1[C@@H]2CCC[C@@]1(c1cccc(O)c1)CCN2CCc1ccccc1 (single isomer, unassigned) [(−)-48]",EC50,MOR [3]; [10],> 25000 nM
same,EC50,MOR [1]; [11],12.1 ± 4.01 nM
"CCOC(=O)C[C@H]1[C@@H]2CCC[C@@]1(c1cccc(O)c1)CCN2CCc1ccccc1 [Compound 28, Ethyl 2-(5-(3-hydroxyphenyl)-2-phenethyl-2-azabicyclo[3.3.1]nonan-9-yl)acetate]",EC50,MOR [3]; [12],58.8 ± 34.7 nM
same,Emax,MOR [3]; [14],2.18%
same,EC50,MOR [1]; [7],3.97 ± 1.8 nM
same,Emax,MOR [1]; [8],78%
same,Bias Factor,MOR [2]; Table 2,4.8
"CCOC(=O)C[C@@H]1[C@H]2CCC[C@]1(c1cccc(O)c1)CCN2CCc1ccccc1 [Compound 27, Ethyl 2-(5-(3-hydroxyphenyl)-2-phenethyl-2-azabicyclo[3.3.1]nonan-9-yl)acetate]",EC50,MOR [3]; [12],175 ± 42.6 nM
same,Emax,MOR [3]; [14],1.5%
same,EC50,MOR [1]; [7],14.6 ± 3.99 nM
same,Emax,MOR [1]; [8],90.4%
same,Bias Factor,MOR [2]; Table 2,6.7
